Assay results: PubChem BioAssay (NCI)
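How tested: cells in 96-well plates exposed to compound for 48 hours at five concentrations. Here, GI50 denotes the concentration required for 50% inhibition of growth. TGI is the concentration that stops growth completely.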

How the values were obtained:
Assay in all cases: NCI tumour cell line growth inhibition, 48 h
[1] = system: SK-MEL-28 melanoma
[2] = system: K-562 leukemia
[3] = system: MDA-MB-231 breast
[4] = system: OVCAR-8 ovarian
[5] = system: A498 renal
[6] = system: SK-MEL-2 melanoma
[7] = system: NCI-H226 lung
[8] = system: CCRF-CEM leukemia
[9] = system: UO-31 renal
[10] = system: M14 melanoma

| SMILES | GI50 [1] | TGI [1] | GI50 [2] | TGI [2] | GI50 [3] | TGI [3] | GI50 [4] | TGI [4] | GI50 [5] | TGI [5] | GI50 [6] | TGI [6] | GI50 [7] | TGI [7] | GI50 [8] | TGI [8] | GI50 [9] | TGI [9] | GI50 [10] | TGI [10] |
| --- | --- | --- | --- | --- | --- | --- | --- | --- | --- | --- | --- | --- | --- | --- | --- | --- | --- | --- | --- | --- |
| Nc1ccccc1C#C/C=C\C#Cc1ccccc1N | 28.7 µM | 82 µM | 0.583 µM | 14.2 µM | 12.5 µM | 30.4 µM | 28.1 µM | 74.7 µM | 13.6 µM | 36 µM | 16.3 µM | 60.7 µM | 19.6 µM | 53.8 µM | 3.93 µM | 32.4 µM | 11.4 µM | 34.1 µM | 5.04 µM | 22.7 µM |
| COCC[C@H]1CCC/C=C/[C@@H]2C[C@H](O)C[C@H]2[C@H](O)/C=C/C(=O)O1 | 0.0345 µM | 0.153 µM | 0.313 µM | > 100 µM | 0.131 µM | 0.322 µM | 0.0483 µM | > 100 µM | 0.0231 µM | 0.107 µM | 0.177 µM | 0.636 µM | 0.0293 µM | 0.121 µM | 0.322 µM | > 100 µM | 0.0563 µM |  | 0.0436 µM | > 100 µM |
| N#Cc1cc(-c2cc3ccccc3o2)oc1N | 6.54 µM | 19.7 µM | 3.58 µM | > 100 µM | 1.89 µM | 4.76 µM | 4.32 µM | > 100 µM | 1.76 µM | 4.68 µM | 1.29 µM | 4.49 µM | 3.12 µM | 13.4 µM | 3.72 µM | 21.2 µM | 3.72 µM | 18.2 µM | 6.11 µM | 22 µM |
| COc1ccc(C(=O)c2cc(OC)c(OC)c(OC)c2)cc1/C=C/C(=O)c1ccc(F)cc1 | 2.48 µM | 7.25 µM | 2.34 µM | > 100 µM | 4.72 µM | 84.5 µM | 3.7 µM | 37.8 µM | 14 µM | 29.9 µM | 9.89 µM | 38.2 µM | 3.57 µM | 18.1 µM | 2.24 µM | 9.69 µM | 1.77 µM | 3.49 µM | 3.39 µM | 18 µM |
| Cc1cc(C(=O)Nc2ccc3cc(CN4CCOCC4)ccc3n2)c(C)n1-c1ccccc1 | 2.91 µM | 8.91 µM | 1.06 µM | > 55.3 µM | 8.09 µM | 51.8 µM | 1.21 µM | 5.43 µM | 3.09 µM | 64.2 µM | 2.44 µM | 5.89 µM | 0.374 µM | 5.92 µM | 1.86 µM | > 93.7 µM | 2.24 µM | 33.5 µM | 1.81 µM | 5.71 µM |
| COc1ccc(C(=O)c2cc(C)c(OC)c(C)c2)cc1OC(=O)CCl | 0.0396 µM | > 100 µM | < 0.01 µM | > 100 µM | < 0.0112 µM | > 100 µM | < 0.01 µM | > 100 µM | 1.45 µM | 9.51 µM | < 0.01 µM | > 100 µM | 4.27 µM | > 100 µM | < 0.01 µM | > 100 µM |  | > 100 µM | < 0.01 µM | 22.8 µM |
| C=C1C(=O)O[C@H]2[C@H]1CC/C(COC(=O)NCCCCNC(=O)OC/C1=C/CC[C@@]3(C)O[C@H]3[C@H]3OC(=O)C(=C)[C@@H]3CC1)=C\CC[C@@]1(C)O[C@@H]21 | 0.529 µM | 2.3 µM | 0.665 µM | 10.4 µM | 1.53 µM | 3.24 µM | 2.18 µM | 8.26 µM | 6.36 µM | 18.9 µM | 1.77 µM | 4.89 µM | 11.4 µM | 30.5 µM | 0.272 µM | 0.845 µM | 7.61 µM | 20.9 µM | 1.97 µM | 4.82 µM |
| COc1ccc(C2=C(Cl)c3cc(OC)c(OC)cc3C2Cl)cc1 (stereo not drawn) |  | 31.8 µM |  | > 53.1 µM |  | 36.6 µM |  | 50.6 µM |  | 28.9 µM |  | 26.3 µM |  | 66 µM |  | 21 µM |  | 13.4 µM |  | 37.1 µM |
| CCCCCCCCCCCCCCCC(=O)OCC(C[As](=O)(O)O)OC(=O)CCCCCCCCCCCCCCC (stereo not drawn) |  | > 100 µM |  | > 100 µM |  | > 100 µM |  | > 100 µM |  | > 100 µM |  | > 100 µM |  | > 100 µM |  | > 100 µM |  | > 100 µM |  | > 100 µM |
| O=C1c2cccnc2-c2nc(-c3ccc(Cl)cc3)cc3c2c1nc1ccccc13 | 34.7 µM | > 100 µM | 38.7 µM | > 100 µM | 44.1 µM | > 100 µM | 98.4 µM | > 100 µM | 33.5 µM | > 100 µM | 76.5 µM | > 100 µM | 49.5 µM | > 100 µM | > 100 µM | > 100 µM | 46.9 µM | > 100 µM | 19.9 µM | 58 µM |
